Test results reported in patent US8815909B2, “Diaminocyclohexane compounds and uses thereof” (Bristol-Myers Squibb Company, priority 2011, dated 2014).

Molecular target: T1, human Y4 receptor (Homo sapiens, UniProt P50391)
T1 construct: expressed in transfected cells
Assay: NPY4 cAMP HTRF Agonist Assay (inhibitory cAMP assay, Gi activation by Y4 agonism)
Type: cell-based
Details: human Y4 stable CHO clonal cells, forskolin + IBMX; read-out: NPY4 cAMP HTRF Agonist Assay EC50
Procedure: NPY4 cAMP HTRF Agonist Assay
The functionality of the compound at Y4 receptor was analyzed using a inhibitory cAMP assay (CISBIO, HTRF cAMP kit #62AM4PEC) to measure the Gi activation by Y4 agonism.
The human Y4 stable CHO clonal cells were maintained in culture medium (F-12 containing 10% Fetal Bovine Serum, […] GENETICIN®, […] Zeocin). Before the experiment, 5 μL of 1 uM Forskolin (Sigma, # F6886) and 100 uM IBMX (Sigma, # I5879) in PBS buffer were added into 384-well plates (PE, Proxi-plate) that were pre-dotted with 100 nL compounds. The cells were removed from the flasks by Cellstripper, counted and adjusted to 1.0×10^6 cells/mL in PBS buffer, and added 5 μL/well (5000 cells/well) into the above 384-well plates. The cells were then covered and incubated for 30 minutes at room temperature. After incubation, 5 μL/well of D2-conjugate in HTRF lysis buffer was first added, followed by adding 5 μL/well of anti-cAMP Cryptate in HTRF lysis buffer. The plates were incubated for another 1 hour at room temperature and read on the EnVision Multilabel Plate Reader.
Compounds described herein were tested in the above assay.

T1 sequence (P50391 whole entry): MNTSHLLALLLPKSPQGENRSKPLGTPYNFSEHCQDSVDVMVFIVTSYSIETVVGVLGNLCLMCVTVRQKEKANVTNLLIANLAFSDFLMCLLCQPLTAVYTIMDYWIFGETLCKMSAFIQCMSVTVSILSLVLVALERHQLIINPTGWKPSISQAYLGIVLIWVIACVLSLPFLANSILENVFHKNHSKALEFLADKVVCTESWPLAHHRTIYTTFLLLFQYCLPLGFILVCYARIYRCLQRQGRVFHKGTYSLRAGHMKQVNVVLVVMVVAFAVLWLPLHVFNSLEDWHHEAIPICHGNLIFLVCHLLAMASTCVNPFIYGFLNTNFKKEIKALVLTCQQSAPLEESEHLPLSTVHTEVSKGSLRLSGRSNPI

| Compound | EC50 [nM] |
| --- | --- |
| O=[N+]([O-])c1ccc(N2CCC[C@H](N[C@@H]3CCCC[C@H]3Nc3ncc(-c4ccc(OC(F)F)cc4)o3)C2)cc1 [Example 13, (1R,2R)—N1-(5-(4-(Difluoromethoxy)phenyl)oxazol-2-yl)-N2-((S)-1-(4-nitrophenyl)piperidin-3-yl)cyclohexane-1,2-diamine] | 3 |
| CC(C)(C)Oc1ccc(-c2cnc(N[C@@H]3CCCC[C@H]3N[C@H]3CCCN(c4ccc([N+](=O)[O-])cc4)C3)o2)cc1 [Example 14, (1R,2R)—N1-(5-(4-tert-Butoxyphenyl)oxazol-2-yl)-N2-((S)-1-(4-nitrophenyl)piperidin-3-yl)cyclohexane-1,2-diamine] | 920 |
| O=[N+]([O-])c1ccc(N2C[C@@H]3C[C@H](N[C@@H]4CCCC[C@H]4Nc4ncc(-c5ccccc5F)o4)[C@H]2C3)cc1 [Example 15, (1R,2R)—N1-(5-(2-Fluorophenyl)oxazol-2-yl)-N2-((1R,4R,6S)-2-(4-nitrophenyl)-2-azabicyclo[2.2.1]heptan-6-yl)cyclohexane-1,2-diamine] | 8 |
| O=[N+]([O-])c1ccc(N2C[C@@H]3C[C@H](N[C@@H]4CCCC[C@H]4Nc4ncc(-c5ccc(O)cc5)o4)[C@H]2C3)cc1 [Example 16, 4-(2-((1R,2R)-2-((1R,4R,6S)-2-(4-Nitrophenyl)-2-azabicyclo[2.2.1]heptan-6-ylamino)cyclohexylamino)oxazol-5-yl)phenol] | 6 |
| O=[N+]([O-])c1ccc(N2CC3CCC2[C@@H](N[C@@H]2CCCC[C@H]2Nc2ncc(-c4ccc(OC(F)(F)F)cc4)o2)C3)cc1 (stereo partly drawn) [Example 17, (1R,2R)—N1-((6S)-2-(4-Nitrophenyl)-2-azabicyclo[2.2.2]octan-6-yl)-N2-(5-(4-(trifluoromethoxy)phenyl)oxazol-2-yl)cyclohexane-1,2-diamine] | 911 |
| O=[N+]([O-])c1ccc(N2CCC[C@H](N[C@@H]3CCCC[C@H]3Nc3ncc(-c4ccc(F)cc4)o3)C2)cc1 [Example 18, (1R,2R)—N1-(5-(4-Fluorophenyl)oxazol-2-yl)-N2-((S)-1-(4-nitrophenyl)piperidin-3-yl)cyclohexane-1,2-diamine] | 7 |
| O=[N+]([O-])c1ccc(N2CCC[C@H](N[C@@H]3CCCC[C@H]3Nc3ncc(-c4cccc(F)c4)o3)C2)cc1 [Example 19, (1R,2R)—N1-(5-(3-Fluorophenyl)oxazol-2-yl)-N2-((S)-1-(4-nitrophenyl)piperidin-3-yl)cyclohexane-1,2-diamine] | 23 |
| O=[N+]([O-])c1ccc(N2CCC[C@H](N[C@@H]3CCCC[C@H]3Nc3ncc(-c4ccc(F)cc4F)o3)C2)cc1 [Example 20, (1R,2R)—N1-(5-(2,4-Difluorophenyl)oxazol-2-yl)-N2-((S)-1-(4-nitrophenyl)piperidin-3-yl)cyclohexane-1,2-diamine] | 10 |
| COc1ccc(-c2cnc(N[C@@H]3CCCC[C@H]3N[C@H]3CCCN(c4ccc([N+](=O)[O-])cc4)C3)o2)c(F)c1 [Example 21, (1R,2R)—N1-(5-(2-fluoro-4-methoxyphenyl)oxazol-2-yl)-N2-((S)-1-(4-nitrophenyl)piperidin-3-yl)cyclohexane-1,2-diamine] | 11 |
| O=[N+]([O-])c1ccc(N2CCC[C@H](N[C@@H]3CCCC[C@H]3Nc3ncc(-c4cccc(OC(F)(F)F)c4)o3)C2)cc1 [Example 22, (1R,2R)—N1-((S)-1-(4-Nitrophenyl)piperidin-3-yl)-N2-(5-(3-(trifluoromethoxy)phenyl)oxazol-2-yl)cyclohexane-1,2-diamine] | 43 |
| O=[N+]([O-])c1ccc(N2CCC[C@H](N[C@@H]3CCCC[C@H]3Nc3cc(-c4cccc(OC(F)(F)F)c4)ccn3)C2)cc1 [Example 23, (1R,2R)—N1-((S)-1-(4-Nitrophenyl)piperidin-3-yl)-N2-(4-(3-(trifluoromethoxy)phenyl)pyridin-2-yl)cyclohexane-1,2-diamine] | 71 |
| O=[N+]([O-])c1ccc(N2CCC[C@H](N[C@@H]3CCCC[C@H]3Nc3cc(-c4ccc(OC(F)(F)F)cc4)ccn3)C2)cc1 [Example 24, (1R,2R)—N1-((S)-1-(4-Nitrophenyl)piperidin-3-yl)-N2-(4-(4-(trifluoromethoxy)phenyl)pyridin-2-yl)cyclohexane-1,2-diamine] | 69 |
| O=[N+]([O-])c1ccc(N2CCC[C@H](N[C@@H]3CCCC[C@H]3Nc3cc(-c4ccccc4)ccn3)C2)cc1 [Example 25, (1R,2R)—N1-((S)-1-(4-Nitrophenyl)piperidin-3-yl)-N2-(4-phenylpyridin-2-yl)cyclohexane-1,2-diamine] | 14 |
| O=[N+]([O-])c1ccc(N2CCC[C@H](N[C@@H]3CCCC[C@H]3Nc3ncc(-c4ccccc4)s3)C2)cc1 [Example 26] | 8 |
| O=[N+]([O-])c1ccc(N2CCC[C@H](N[C@@H]3CCCC[C@H]3Nc3nnc(-c4ccccc4)o3)C2)cc1 [Example 27, (1R,2R)—N1-((S)-1-(4-Nitrophenyl)piperidin-3-yl)-N2-(5-phenyl-1,3,4-oxadiazol-2-yl)cyclohexane-1,2-diamine] | 60 |
| O=[N+]([O-])c1ccc(N2CCC[C@H](N[C@@H]3CCCC[C@H]3Nc3nccc(-c4ccc(OC(F)(F)F)cc4)n3)C2)cc1 [Example 28, (1R,2R)—N1-((S)-1-(4-Nitrophenyl)piperidin-3-yl)-N2-(4-(4-(trifluoromethoxy)phenyl)pyrimidin-2-yl)cyclohexane-1,2-diamine] | 217 |
| O=[N+]([O-])c1ccc(N2CCC[C@H](N[C@@H]3CCCC[C@H]3Nc3nccc(-c4cccc(OC(F)(F)F)c4)n3)C2)cc1 [Example 29, (1R,2R)—N1-((S)-1-(4-Nitrophenyl)piperidin-3-yl)-N2-(4-(3-(trifluoromethoxy)phenyl)pyrimidin-2-yl)cyclohexane-1,2-diamine] | 389 |
| COc1cccc(-c2ccnc(N[C@@H]3CCCC[C@H]3N[C@H]3CCCN(c4ccc([N+](=O)[O-])cc4)C3)n2)c1 [Example 30, (1R,2R)—N1-(4-(3-Methoxyphenyl)pyrimidin-2-yl)-N2-((S)-1-(4-nitrophenyl)piperidin-3-yl)cyclohexane-1,2-diamine] | 203 |
| COc1ccc(-c2ccnc(N[C@@H]3CCCC[C@H]3N[C@H]3CCCN(c4ccc([N+](=O)[O-])cc4)C3)n2)cc1 [Example 31, (1R,2R)—N1-(4-(4-Methoxyphenyl)pyrimidin-2-yl)-N2-((S)-1-(4-nitrophenyl)piperidin-3-yl)cyclohexane-1,2-diamine] | 241 |
| O=[N+]([O-])c1ccc(N2CCC[C@H](N[C@@H]3CCCC[C@H]3Nc3nccc(-c4ccccc4)n3)C2)cc1 [Example 32, (1R,2R)—N1-((S)-1-(4-Nitrophenyl)piperidin-3-yl)-N2-(4-phenylpyrimidin-2-yl)cyclohexane-1,2-diamine] | 60 |
| N#Cc1ccc(N2CCC[C@H](N[C@@H]3CCCC[C@H]3Nc3cc(-c4cc[nH]n4)ccn3)C2)cc1 [Example 33, 4-((S)-3-((1R,2R)-2-(4-(1H-Pyrazol-3-yl)pyridin-2-ylamino)cyclohexylamino)piperidin-1-yl)benzonitrile tris-trifluoroacetate] | 322 |
| Cn1nccc1-c1ccnc(N[C@@H]2CCCC[C@H]2N[C@H]2CCCN(c3ccc(C#N)cc3)C2)c1 [Example 34, 4-((S)-3-((1R,2R)-2-(4-(1-Methyl-1H-pyrazol-5-yl)pyridin-2-ylamino)cyclohexylamino)piperidin-1-yl)benzonitrile tris-trifluoroacetate] | 150 |
| N#Cc1ccc(N2CCC[C@H](N[C@@H]3CCCC[C@H]3Nc3ncc(-c4cccc(F)c4)o3)C2)cc1 [Example 35, 4-((S)-3-((1R,2R)-2-(5-(3-Fluorophenyl)oxazol-2-ylamino)cyclohexylamino)piperidin-1-yl)benzonitrile] | 42 |
| N#Cc1ccc(N2CCC[C@H](N[C@@H]3CCCC[C@H]3Nc3cc(-c4cccc(F)c4)ccn3)C2)cc1 [Example 36, 4-((S)-3-((1R,2R)-2-(4-(3-Fluorophenyl)pyridin-2-ylamino)cyclohexylamino)piperidin-1-yl)benzonitrile tris-trifluoroacetate] | 262 |
| N#Cc1ccc(N2CCC[C@H](N[C@@H]3CCCC[C@H]3Nc3cc(-c4ccccc4F)ccn3)C2)cc1 [Example 37, 4-((S)-3-((1R,2R)-2-(4-(2-Fluorophenyl)pyridin-2-ylamino)cyclohexylamino)piperidin-1-yl)benzonitrile tris-trifluoroacetate] | 82 |
| N#Cc1ccc(N2CCC[C@H](N[C@@H]3CCCC[C@H]3Nc3ncc(-c4ccc(OC(F)(F)F)cc4)o3)C2)cc1Cl [Example 38, 2-Chloro-4-((S)-3-((1R,2R)-2-(5-(4-(trifluoromethoxy)phenyl)oxazol-2-ylamino)cyclohexylamino)piperidin-1-yl)benzonitrile bis-trifluoroacetate] | 8 |
| N#Cc1ccc(N2CCC[C@H](N[C@@H]3CCCC[C@H]3Nc3ncc(-c4ccccc4F)o3)C2)cc1Cl [Example 39, 2-Chloro-4-((S)-3-((1R,2R)-2-(5-(2-fluorophenyl)oxazol-2-ylamino)cyclohexylamino)piperidin-1-yl)benzonitrile bis-trifluoroacetate] | 35 |
| N#Cc1ccc(N2CCC[C@H](N[C@@H]3CCCC[C@H]3Nc3nccc(-c4ccccc4)n3)C2)cc1Cl [Example 40, 2-Chloro-4-((S)-3-((1R,2R)-2-(4-phenylpyrimidin-2-ylamino)cyclohexylamino)piperidin-1-yl)benzonitrile bis-trifluoroacetate] | 29 |
